Columns and labels:
Male DBA/2J mice = test: Intravenous nicotine self-administration in drug-naive mice; assay type: in vivo, mouse
Procedure: Acute self-administration of nicotine was carried out using a previously described method (Semenova et al. 1995, 1999; Kuzmin et al. 1996a, 1997). The tails of the mice were fixed to the surface of the apparatus during the testing sessions to allow drug delivery; the fixing of the tail allowed the mice to move all of their four paws, head and entire body. […] The only cue associated with the delivery of the drug or vehicle infusion was the noise of the pump. Mice were tested either once or twice, with approximately one month between each test. The second test only occurred in a subset of the original set of mice (2-7 pairs of mice from each of the original groups). This was done to increase the number of subjects/condition, and involved randomly assigning and testing these mice under a different set of conditions than in the original test (i.e., different nicotine and/or MPEP dose).
Saline or one of four nicotine doses (0.016, 0.048, 0.16, 0.48 μg/inf) were made available to different groups of animals. Each group consisted of 9-17 pairs of animals, including 2-7 mice per group that had previously undergone one testing session at least one month previously (see above). Pre-treatment with MPEP (0, 5, 10, 20 mg/kg intraperitoneally) occurred 15 minutes prior to the initiation of the test session.
Data analyses were based on the comparison of both active and passive mouse nose-pokes in each pair, using the formula: R=log(AT/PT)−log(ABL/PBL), where (AT/PT) is the ratio of the total number of active versus passive mouse nose-pokes during the 30-min test, and (ABL/PBL) is the ratio of the total number of active versus passive mouse nose-pokes during the 10-min pre-test. […] Some data-points (9/237 pairs of mice) were excluded from the final analyses based on whether or not they lay within 2 standard deviations of the group mean for that specific condition. Nicotine self-administration data, obtained after saline pre-treatment, were analyzed using a one-way ANOVA with nicotine (4 levels) defined as the between-subjects factor. R-criterion data were analyzed using two-way ANOVAs with MPEP dose (4 levels) and nicotine dose (4 levels) defined as the between-subjects factors. Pre-planned R-criterion data analyses were performed using one-way ANOVAs for each available dose of self-administered nicotine and saline, with MPEP dose (4 levels) defined as the between-subject factor. Appropriate individual comparisons were performed using the Student-Newman-Keuls post hoc test. […] Body weights and pre-test nose-poke activity levels were analyzed with three-way ANOVAs (nicotine dose, MPEP dose and mouse, i.e. active/passive, defined as between-subjects factors).

[1] = 9 mg/kg/day nicotine salt (3.16 mg/kg, free base) by osmotic mini-pump; cited from earlier work
male Wistar rats = test: Somatic signs of the nicotine withdrawal syndrome; assay type: in vivo, rat; conditions: six hours after removal of the nicotine-containing minipumps
Procedure: Rats were placed individually in transparent plastic cylindrical containers (30×38 cm) in which they could move freely. Subjects were habituated to the containers for 10 min each day over 3 days before the first test session. During the test sessions the rats were observed blindly by an experienced observer for 10 min and the frequency of the following signs was recorded based on a checklist of nicotine abstinence signs (Hildebrand et al. 1999; Watkins et al. 2000; Malin 2001): body shakes, chews, cheek tremors, escape attempts, eye blinks, foot licks, gasps, genital licks, head shakes, ptosis, scratches, teeth chattering, writhes and yawns. Multiple successive counts of any sign required a distinct pause between episodes. Ptosis, if present continuously, was only counted once per minute. For statistical analyses, the total number of somatic signs was defined as the sum of individual occurrences of the above mentioned withdrawal signs. Further, the categories of “abdominal constrictions” included gasps and writhes; “facial fasciculation” included cheek tremors, chews, and teeth chattering; and “miscellaneous other signs” included shakes, escape attempts, licks, scratches, and yawns.
Separate drug-naive rats were prepared with osmotic minipumps containing nicotine (3.16 mg/kg per day for 7 days) dissolved in saline. […] Further, this nicotine dose was selected to allow direct comparison of the effects of bupropion on somatic signs (present experiment 4) and on reward threshold elevations (experiment 3 described above) observed during nicotine withdrawal. To induce the somatic signs of nicotine withdrawal the minipumps were removed 6 days and 18 h after implantation. The behavioral observations were conducted 6, 12 and 24 h after the removal of the minipumps. The rats were injected with bupropion (0, 5, 10, 20, 40 mg/kg, IP; n=6-8), 30 min prior to the 12-h time point. The selection of the time points was based on the time-course of the expression of the somatic signs after the termination of nicotine exposure (Epping-Jordan et al. 1998; Harrison et al. 2001a; Semenova and Markou 2003; Skjei and Markou 2003).

drug-naïve rats = conditions: cited from earlier work
[2] = MPEP 5 mg/kg, Nicotine 0 μg/inf
[3] = MPEP 5 mg/kg, Nicotine 0.016 μg/inf
[4] = MPEP 5 mg/kg, Nicotine 0.048 μg/inf
[5] = MPEP 5 mg/kg, Nicotine 0.16 μg/inf
[6] = MPEP 5 mg/kg, Nicotine 0.48 μg/inf
[7] = MPEP 10 mg/kg, Nicotine 0 μg/inf
[8] = MPEP 10 mg/kg, Nicotine 0.016 μg/inf
[9] = MPEP 10 mg/kg, Nicotine 0.048 μg/inf
[10] = MPEP 10 mg/kg, Nicotine 0.16 μg/inf
[11] = MPEP 10 mg/kg, Nicotine 0.48 μg/inf
[12] = MPEP 20 mg/kg, Nicotine 0 μg/inf
[13] = MPEP 20 mg/kg, Nicotine 0.016 μg/inf
[14] = MPEP 20 mg/kg, Nicotine 0.048 μg/inf
[15] = MPEP 20 mg/kg, Nicotine 0.16 μg/inf
[16] = MPEP 20 mg/kg, Nicotine 0.48 μg/inf

CN1CCCC1c1cccnc1 (single isomer, unassigned; (-)) [nicotine, (−)-1-methyl-2-(3-pyridyl) pyrrolidine]
self-administration (R-criterion) (Male DBA/2J mice; 0.048 μg/inf nicotine, saline pretreatment): significantly different from saline administration | stable plasma nicotine levels [1]: ~44 ng/mL | total somatic signs of abstinence (male Wistar rats): significant increase in the amount of total somatic signs of abstinence

Cc1cccc(C#Cc2ccccc2)n1 [MPEP, 2-methyl-6-(phenylethynyl)-pyridine]
total self-injected nicotine dose (Male DBA/2J mice; 0.048 μg/inf nicotine): no significant effect of MPEP on total self-injected nicotine dose | R-criterion (Male DBA/2J mice; 20 mg/kg MPEP, 0.048 μg/inf nicotine): a trend for 20 mg/kg MPEP to decrease the R-criterion below zero | nose-pokes, active pre-test (Male DBA/2J mice; [2]): 8.19 ± 1.03 responses per minute | nose-pokes, active test (Male DBA/2J mice; [2]): 4.99 ± 1.17 responses per minute | nose-pokes, passive pre-test (Male DBA/2J mice; [2]): 8.38 ± 0.96 responses per minute | nose-pokes, passive test (Male DBA/2J mice; [2]): 6.41 ± 1.38 responses per minute | nose-pokes, active pre-test (Male DBA/2J mice; [3]): 7.86 ± 0.87 responses per minute | nose-pokes, active test (Male DBA/2J mice; [3]): 2.62 ± 0.49 responses per minute | nose-pokes, passive pre-test (Male DBA/2J mice; [3]): 8.01 ± 0.91 responses per minute | nose-pokes, passive test (Male DBA/2J mice; [3]): 3.46 ± 0.74 responses per minute | nose-pokes, active pre-test (Male DBA/2J mice; [4]): 9.13 ± 1.37 responses per minute | nose-pokes, active test (Male DBA/2J mice; [4]): 3.43 ± 0.67 responses per minute | nose-pokes, passive pre-test (Male DBA/2J mice; [4]): 8.93 ± 1.36 responses per minute | nose-pokes, passive test (Male DBA/2J mice; [4]): 4.45 ± 1.06 responses per minute | nose-pokes, active pre-test (Male DBA/2J mice; [5]): 8.32 ± 0.94 responses per minute | nose-pokes, active test (Male DBA/2J mice; [5]): 4.67 ± 0.95 responses per minute | nose-pokes, passive pre-test (Male DBA/2J mice; [5]): 8.48 ± 3.31 responses per minute | nose-pokes, passive test (Male DBA/2J mice; [5]): 4.32 ± 2.37 responses per minute | nose-pokes, active pre-test (Male DBA/2J mice; [6]): 8.12 ± 1.17 responses per minute | nose-pokes, active test (Male DBA/2J mice; [6]): 3.04 ± 0.73 responses per minute | nose-pokes, passive pre-test (Male DBA/2J mice; [6]): 8.58 ± 1.38 responses per minute | nose-pokes, passive test (Male DBA/2J mice; [6]): 3.25 ± 0.88 responses per minute | nose-pokes, active pre-test (Male DBA/2J mice; [7]): 7.95 ± 0.99 responses per minute | nose-pokes, active test (Male DBA/2J mice; [7]): 4.92 ± 1.1 responses per minute | nose-pokes, passive pre-test (Male DBA/2J mice; [7]): 8.00 ± 1.06 responses per minute | nose-pokes, passive test (Male DBA/2J mice; [7]): 5.86 ± 1.56 responses per minute | nose-pokes, active pre-test (Male DBA/2J mice; [8]): 7.79 ± 0.83 responses per minute | nose-pokes, active test (Male DBA/2J mice; [8]): 6.48 ± 1.05 responses per minute | nose-pokes, passive pre-test (Male DBA/2J mice; [8]): 8.22 ± 0.87 responses per minute | nose-pokes, passive test (Male DBA/2J mice; [8]): 4.26 ± 0.94 responses per minute | nose-pokes, active pre-test (Male DBA/2J mice; [9]): 7.43 ± 0.98 responses per minute | nose-pokes, active test (Male DBA/2J mice; [9]): 3.92 ± 1.18 responses per minute | nose-pokes, passive pre-test (Male DBA/2J mice; [9]): 8.06 ± 1.39 responses per minute | nose-pokes, passive test (Male DBA/2J mice; [9]): 5.83 ± 1.72 responses per minute | nose-pokes, active pre-test (Male DBA/2J mice; [10]): 7.12 ± 0.66 responses per minute | nose-pokes, active test (Male DBA/2J mice; [10]): 4.19 ± 0.81 responses per minute | nose-pokes, passive pre-test (Male DBA/2J mice; [10]): 7.20 ± 0.69 responses per minute | nose-pokes, passive test (Male DBA/2J mice; [10]): 4.62 ± 0.82 responses per minute | nose-pokes, active pre-test (Male DBA/2J mice; [11]): 7.49 ± 0.86 responses per minute | nose-pokes, active test (Male DBA/2J mice; [11]): 3.58 ± 0.73 responses per minute | nose-pokes, passive pre-test (Male DBA/2J mice; [11]): 7.48 ± 0.88 responses per minute | nose-pokes, passive test (Male DBA/2J mice; [11]): 3.81 ± 0.47 responses per minute | nose-pokes, active pre-test (Male DBA/2J mice; [12]): 6.98 ± 1.18 responses per minute | nose-pokes, active test (Male DBA/2J mice; [12]): 5.96 ± 1.69 responses per minute | nose-pokes, passive pre-test (Male DBA/2J mice; [12]): 8.50 ± 1.43 responses per minute | nose-pokes, passive test (Male DBA/2J mice; [12]): 6.33 ± 1.66 responses per minute | nose-pokes, active pre-test (Male DBA/2J mice; [13]): 7.10 ± 0.87 responses per minute | nose-pokes, active test (Male DBA/2J mice; [13]): 5.48 ± 1.09 responses per minute | nose-pokes, passive pre-test (Male DBA/2J mice; [13]): 7.35 ± 0.85 responses per minute | nose-pokes, passive test (Male DBA/2J mice; [13]): 8.77 ± 1.85 responses per minute | nose-pokes, active pre-test (Male DBA/2J mice; [14]): 8.36 ± 1.07 responses per minute | nose-pokes, active test (Male DBA/2J mice; [14]): 3.56 ± 1.04 responses per minute | nose-pokes, passive pre-test (Male DBA/2J mice; [14]): 8.31 ± 1.28 responses per minute | nose-pokes, passive test (Male DBA/2J mice; [14]): 5.29 ± 1.11 responses per minute | nose-pokes, active pre-test (Male DBA/2J mice; [15]): 7.50 ± 1.25 responses per minute | nose-pokes, active test (Male DBA/2J mice; [15]): 5.06 ± 1.52 responses per minute | nose-pokes, passive pre-test (Male DBA/2J mice; [15]): 7.56 ± 1.32 responses per minute | nose-pokes, passive test (Male DBA/2J mice; [15]): 7.97 ± 1.76 responses per minute | nose-pokes, active pre-test (Male DBA/2J mice; [16]): 7.31 ± 0.98 responses per minute | nose-pokes, active test (Male DBA/2J mice; [16]): 4.67 ± 1.22 responses per minute | nose-pokes, passive pre-test (Male DBA/2J mice; [16]): 7.08 ± 0.94 responses per minute | nose-pokes, passive test (Male DBA/2J mice; [16]): 4.35 ± 0.98 responses per minute | nicotine self-administration (R-criterion) (Male DBA/2J mice; MPEP 5, 10, 20 mg/kg, 0.048 μg/inf nicotine): significantly reduced nicotine self-administration at all doses tested | nose-poke responding (Male DBA/2J mice; active mice, 0.048 μg/inf nicotine): significantly decreased nose-poke responding in the active mice | reward-lowering effect of nicotine in a brain reward stimulation procedure (drug-naïve rats; 0.25 mg/kg nicotine (Harrison et al. 2002)): had no effect on the reward-lowering effect of 0.25 mg/kg nicotine | dose that elevated ICSS thresholds in drug-naïve rats (drug-naïve rats; previous studies (Harrison et al., 2002; Macey et al., 2001)): ≥ 3 mg/kg
